{"source": "paper PMC3185201", "about": "(Molecular pharmaceutics, 2011)", "origin": "cited, not measured here", "system": "NEP 24.11", "conditions": "prior study", "data": [{"smiles": "CC[C@H](C)[C@H](NC(=O)[C@H](Cc1ccccc1)NC(=O)[C@H](CCC(=O)O)NC(=O)[C@H](CCCCN)NC(=O)[C@H](C)NC(=O)[C@H](C)NC(=O)[C@H](CCC(N)=O)NC(=O)[C@@H]1CCCCNC(=O)CC[C@H](NC(=O)[C@H](CO)NC(=O)[C@@H](NC(=O)[C@H](CC(=O)O)NC(=O)[C@H](CO)NC(=O)[C@@H](NC(=O)[C@H](Cc2ccccc2)NC(=O)[C@@H](NC(=O)CNC(=O)[C@H](CCC(=O)O)NC(=O)C(C)(C)NC(=O)[C@@H](N)Cc2c[nH]cn2)[C@@H](C)O)[C@@H](C)O)C(C)C)C(=O)N[C@@H](Cc2ccc(O)cc2)C(=O)N[C@@H](CC(C)C)C(=O)N[C@@H](CCC(=O)O)C(=O)N1)C(=O)N[C@H]1CCC(=O)NCCCC[C@@H](C(=O)NCC(=O)N[C@@H](CCCNC(=N)N)C(=O)NCCCCCC(=O)N[C@@H](CS)C(N)=O)NC(=O)[C@H](C(C)C)NC(=O)[C@H](CC(C)C)NC(=O)[C@H](Cc2c[nH]c3ccccc23)NC1=O", "note": "[EM3106B]", "values": [{"measurement": "Protection from the degradation by NEP 24.11", "value": "outstanding protection"}]}]}
